# Assay results reported in patent publication US5990151A, “Optically active substituted phenylalkylamine derivatives” (Taisho Pharmaceutical Co., Ltd., priority 1995, dated 1999).
# Where a name gives a salt, the structure may show the parent alone.
# Assays:
# humans = conditions: cited from earlier work
# sigma 1 receptor [1] = conditions: cited from earlier work; for affinity for sigma 1 receptor: (agonist), Trends in Pharmacological Sciences, Vol. 13, pp. 85-86
# sigma 1 receptor [2] = biological target: T1, sigma 1 receptor (Cavia porcellus, UniProt Q60492); experiment: Receptor binding experiment, sigma 1, [3H](+)-pentazocine, membrane of total brains of guinea pigs; parameters: species or system Hartley guinea pigs; conditions: [3H](+)-pentazocine (2 nM), 25° C., 120 minutes, 50 mM Tris-HCl pH 7.4; non-specific: 10 μM haloperidol; read-out: Sigma 1 (IC50, concentration of the test drug which inhibits individual binding by 50%)
# T1 construct: A membrane specimen prepared from the total brains of guinea pigs; from tissue; host or cells: total brains of Hartley guinea pigs (membrane specimen)
# T1 sequence (Q60492 whole entry): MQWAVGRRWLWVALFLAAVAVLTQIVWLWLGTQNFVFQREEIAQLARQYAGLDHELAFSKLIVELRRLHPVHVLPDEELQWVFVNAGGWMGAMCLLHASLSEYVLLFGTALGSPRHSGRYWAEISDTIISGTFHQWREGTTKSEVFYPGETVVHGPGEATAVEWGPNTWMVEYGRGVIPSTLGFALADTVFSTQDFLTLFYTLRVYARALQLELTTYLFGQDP
# Protocol: As experimental animals, Hartley guinea pigs were used. […] 121 (1994) using [^3 H] (+)-pentazocine (sigma 1) or [^3 H]1,3-di-o-tolylguanidine (DTG) (sigma 2) as a [^3 H]-labelled ligand.
# A membrane specimen prepared from the total brains of guinea pigs, a [^3 H] ligand and a test drug were reacted in 50 mM Tris-HCl buffer (pH 7.4). For examining sigma 1, [^3 H](+)-pentazocine (2 nM) as a [^3 H] ligand was reacted at 25° C. for 120 minutes. For examining sigma 2, [^3 H] DTG (1 nM) as a [^3 H] ligand was reacted in the presence of 10^-7 M (+)-pentazocine at 25° C. for 90 minutes. After the completion of the reaction, the reaction solution was vacuum filtered through a glass filter (GF/B), and the radioactivity of the filter was determined with a liquid scintillation spectrometer.
# The binding which occurred in the reaction in the presence 10 μM haloperidol was regarded as non-specific binding, and the difference obtained by subtracting non-specific binding from the total binding was regarded as specific binding. An inhibition curve was obtained by reacting a [^3 H] ligand at a specific concentration with a test drug at varied concentrations under the conditions described above. From this inhibition curve, the concentration of the test drug which inhibits individual binding by 50% (IC50) is obtained.
SMILES,develop psychotic symptoms in humans (humans),affinity for sigma 1 receptor (sigma 1 receptor [1]),IC50 (sigma 1 receptor [2]),"specificity to and affinity for sigma 1 receptor (sigma 1 receptor [1]; sigma antagonist, background art)"
CC(C)=CCN1CCC2(C)c3cc(O)ccc3CC1C2C (stereo not shown) [pentazocine],develop psychotic symptoms in humans,high affinity,–,–
"CCCCC(Cc1ccc(OC)c(OCCc2ccccc2)c1)NCCC (single isomer, unassigned; (-)) [B, (-)-N-propyl-1-butyl-2-[4-methoxy-3-(2-phenylethoxy)-phenyl]ethylamine hydrochloride]",–,–,0.73 nM,–
"C=CCN1CCC2(C)c3cc(O)ccc3CC1C2C (stereo not shown) [SKF10047, N-arylnormethazocine]",develop psychotic symptoms in humans,high affinity,–,–
C[C@@H]1CN(CCCn2c3ccccc3c3ccccc32)C[C@H](C)N1 [Rimcazole],–,–,–,not sufficient
"CCCNC(CCC(C)C)Cc1ccc(OC)c(OCCc2ccccc2)c1 (single isomer, unassigned; (-)) [A, (-)-N-propyl-1-(3-methylbutyl)-2-[4-methoxy-3-(2-phenylethoxy)phenyl]ethylamine hydrochloride]",–,–,0.46 nM,–
